Laboratory results from publication PMC9299109 (Iubmb Life, 2021).

What was measured:
[1] = target: T1, BoFADS (FAD synthase from Brucella ovis) (Brucella ovis, UniProt A0A0H3AW96)
[2] = target: T1, BoFADS (FAD synthase from Brucella ovis); test: biochemical

T1 sequence (A0A0H3AW96 1-329): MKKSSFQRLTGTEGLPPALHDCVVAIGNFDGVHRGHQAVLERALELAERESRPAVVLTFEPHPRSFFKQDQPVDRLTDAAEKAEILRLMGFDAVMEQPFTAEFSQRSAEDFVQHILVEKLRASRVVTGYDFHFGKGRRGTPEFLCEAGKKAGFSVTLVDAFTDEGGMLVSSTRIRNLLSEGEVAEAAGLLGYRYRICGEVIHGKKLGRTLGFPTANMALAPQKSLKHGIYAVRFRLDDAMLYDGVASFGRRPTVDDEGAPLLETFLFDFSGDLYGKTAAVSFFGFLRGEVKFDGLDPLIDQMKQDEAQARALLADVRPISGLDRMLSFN

SMILES	visible difference spectroscopy, FMN titration with ADP [1]	Kd [2]
Nc1ncnc2c1ncn2[C@@H]1O[C@H](COP(=O)(O)OP(=O)(O)O)[C@@H](O)[C@H]1O [ADP]	titrated with oxidized FMN in the presence of ADP but not in its absence	–
Cc1cc2nc3c(=O)[nH]c(=O)nc-3n(C[C@H](O)[C@H](O)[C@H](O)COP(=O)(O)O)c2cc1C [FMN, flavin mononucleotide]	–	0.29 ± 0.1 µM
Cc1cc2nc3c(=O)[nH]c(=O)nc-3n(C[C@H](O)[C@H](O)[C@H](O)CO)c2cc1C [RF, riboflavin]	–	0.41 ± 0.06 µM
